Measured values from ChEMBL document CHEMBL1671662, “In vitro activities of telavancin and six comparator agents against anaerobic bacterial isolates” (2009).

Assays:
Assay type in all cases: functional
[1] = system: Prevotella intermedia; experiment: Antibacterial activity against Prevotella intermedia by CLSI M11-A6 agar dilution method
[2] = system: Sutterella wadsworthensis; experiment: Antibacterial activity against Sutterella wadsworthensis by CLSI M11-A6 agar dilution method
[3] = system: Flavonifractor plautii; experiment: Antibacterial activity against Clostridium orbiscindens by CLSI M11-A6 agar dilution method
[4] = system: Holdemania filiformis; experiment: Antibacterial activity against Holdemania filiformis by CLSI M11-A6 agar dilution method
[5] = system: Thomasclavelia ramosa; experiment: Antibacterial activity against Clostridium ramosum by CLSI M11-A6 agar dilution method
[6] = system: Prevotella oris; experiment: Antibacterial activity against Prevotella oris by CLSI M11-A6 agar dilution method; details: Segatella oris
[7] = system: Peptoniphilus asaccharolyticus; experiment: Antibacterial activity against Peptoniphilus asaccharolyticus by CLSI M11-A6 agar dilution method
[8] = system: Prevotella disiens; experiment: Antibacterial activity against Prevotella P disiens by CLSI M11-A6 agar dilution method
[9] = system: Clostridium bolteae; experiment: Antibacterial activity against Clostridium bolteae by CLSI M11-A6 agar dilution method; details: Enterocloster bolteae
[10] = system: Phocaeicola vulgatus; experiment: Antibacterial activity against Bacteroides vulgatus by CLSI M11-A6 agar dilution method
[11] = system: Paraclostridium bifermentans; experiment: Antibacterial activity against Clostridium bifermentans by CLSI M11-A6 agar dilution method
[12] = system: Clostridium perfringens; experiment: Antibacterial activity against Clostridium perfringens by CLSI M11-A6 agar dilution method
[13] = system: Streptococcus constellatus; experiment: Antibacterial activity against Streptococcus constellatus by CLSI M11-A6 agar dilution method
[14] = system: Prevotella nigrescens; experiment: Antibacterial activity against Prevotella nigrescens by CLSI M11-A6 agar dilution method
[15] = system: Prevotella intermedia; experiment: Antibacterial activity against Prevotella P intermedia by CLSI M11-A6 agar dilution method
[16] = system: Clostridium tertium; experiment: Antibacterial activity against Clostridium tertium by CLSI M11-A6 agar dilution method
[17] = system: Clostridium hathewayi; experiment: Antibacterial activity against Clostridium hathewayi by CLSI M11-A6 agar dilution method; details: Hungatella hathewayi
[18] = system: Bacteroides ovatus; experiment: Antibacterial activity against Bacteroides ovatus by CLSI M11-A6 agar dilution method
[19] = system: Ruminococcus sp.; experiment: Antibacterial activity against Ruminococcus sp. by CLSI M11-A6 agar dilution method
[20] = system: Clostridium butyricum; experiment: Antibacterial activity against Clostridium butyricum by CLSI M11-A6 agar dilution method
[21] = system: Peptostreptococcus anaerobius; experiment: Antibacterial activity against Peptostreptococcus anaerobius by CLSI M11-A6 agar dilution method
[22] = system: Ruminococcus albus; experiment: Antibacterial activity against Ruminococcus albus by CLSI M11-A6 agar dilution method; details: Hominimerdicola alba
[23] = system: Prevotella melaninogenica; experiment: Antibacterial activity against Prevotella melaninogenica by CLSI M11-A6 agar dilution method
[24] = system: Clostridium; experiment: Antibacterial activity against Clostridium hypermegas by CLSI M11-A6 agar dilution method
[25] = system: Fusobacterium varium; experiment: Antibacterial activity against Fusobacterium varium by CLSI M11-A6 agar dilution method
[26] = system: Clostridium celerecrescens; experiment: Antibacterial activity against Clostridium celerecrescens by CLSI M11-A6 agar dilution method; details: Lacrimispora celerecrescens
[27] = system: Odoribacter splanchnicus; experiment: Antibacterial activity against Bacteroides splanchnicus by CLSI M11-A6 agar dilution method
[28] = system: Clostridium paraputrificum; experiment: Antibacterial activity against Clostridium paraputrificum by CLSI M11-A6 agar dilution method
[29] = system: Clostridium sporogenes; experiment: Antibacterial activity against Clostridium sporogenes by CLSI M11-A6 agar dilution method
[30] = system: Parvimonas micra; experiment: Antibacterial activity against Peptostreptococcus micros by CLSI M11-A6 agar dilution method
[31] = system: Propionibacterium propionicum; experiment: Antibacterial activity against Propionibacterium propionicus by CLSI M11-A6 agar dilution method; details: Arachnia propionica
[32] = system: Streptococcus intermedius; experiment: Antibacterial activity against Streptococcus intermedius by CLSI M11-A6 agar dilution method
[33] = system: Prevotella bivia; experiment: Antibacterial activity against Prevotella bivia by CLSI M11-A6 agar dilution method
[34] = system: Hoylesella loescheii; experiment: Antibacterial activity against Prevotella loescheii by CLSI M11-A6 agar dilution method
[35] = system: Clostridioides difficile; experiment: Antibacterial activity against Clostridium difficile by CLSI M11-A6 agar dilution method
[36] = system: Blautia producta; experiment: Antibacterial activity against Ruminococcus productus by CLSI M11-A6 agar dilution method
[37] = system: Eggerthella lenta; experiment: Antibacterial activity against Eggerthella lenta by CLSI M11-A6 agar dilution method
[38] = system: Collinsella aerofaciens; experiment: Antibacterial activity against Colinsella aerofaciens by CLSI M11-A6 agar dilution method
[39] = system: Bacteroides fragilis; experiment: Antibacterial activity against Bacteroides fragilis by CLSI M11-A6 agar dilution method

CN[C@H](CC(C)C)C(=O)N[C@H]1C(=O)N[C@@H](CC(N)=O)C(=O)N[C@H]2C(=O)N[C@H]3C(=O)N[C@H](C(=O)N[C@H](C(=O)O)c4cc(O)cc(O)c4-c4cc3ccc4O)[C@H](O)c3ccc(c(Cl)c3)Oc3cc2cc(c3O[C@@H]2O[C@H](CO)[C@@H](O)[C@H](O)[C@H]2O[C@H]2C[C@](C)(N)[C@H](O)[C@H](C)O2)Oc2ccc(cc2Cl)[C@H]1O [VANCOMYCIN]
32 µg/mL: MIC50 [1] | MIC50 [6] | MIC50 [8] | MIC50 [14] | MIC50 [15] | MIC50 [23] | MIC50 [33] | MIC50 [34]
8 µg/mL: MIC50 [5] | MIC90 [5]
> 128 µg/mL: MIC90 [1] | MIC [2] | MIC50 [2] | MIC90 [2] | MIC90 [6] | MIC90 [8] | MIC90 [14] | MIC90 [15] | MIC90 [23] | MIC [25] | MIC50 [25] | MIC90 [25] | MIC90 [27] | MIC90 [33] | MIC90 [34]
2 µg/mL: MIC50 [9] | MIC90 [9] | MIC50 [13] | MIC90 [13] | MIC50 [32] | MIC90 [32] | MIC90 [35]
64 µg/mL: MIC50 [10] | MIC50 [39] | MIC90 [39]
1 µg/mL: MIC50 [3] | MIC90 [7] | MIC50 [11] | MIC90 [12] | MIC50 [16] | MIC50 [17] | MIC90 [17] | MIC90 [19] | MIC50 [20] | MIC90 [21] | MIC90 [22] | MIC50 [24] | MIC50 [26] | MIC50 [28] | MIC50 [29] | MIC90 [30] | MIC50 [35] | MIC90 [36]
0.5 µg/mL: MIC50 [4] | MIC50 [7] | MIC [12] | MIC50 [12] | MIC50 [19] | MIC50 [21] | MIC50 [22] | MIC50 [30] | MIC50 [31] | MIC50 [36] | MIC50 [37] | MIC50 [38]
128 µg/mL: MIC90 [10] | MIC50 [18] | MIC90 [18] | MIC50 [27]
4 µg/mL: MIC90 [3] | MIC90 [4] | MIC90 [11] | MIC90 [16] | MIC90 [20] | MIC90 [24] | MIC90 [26] | MIC90 [28] | MIC90 [29] | MIC90 [31] | MIC90 [37] | MIC90 [38]
